Measurements reported in ChEMBL document CHEMBL1909046, “DrugMatrix in vitro pharmacology data”.

Experiments:
[1] = molecular target: T1, Substance-K receptor (Homo sapiens, UniProt P21452); type: cell membranes, CHO, Membrane; settings: cho; further: in other assays of this panel Not Active means under 50% inhibition at 10 µM
T1 sequence (P21452 whole entry): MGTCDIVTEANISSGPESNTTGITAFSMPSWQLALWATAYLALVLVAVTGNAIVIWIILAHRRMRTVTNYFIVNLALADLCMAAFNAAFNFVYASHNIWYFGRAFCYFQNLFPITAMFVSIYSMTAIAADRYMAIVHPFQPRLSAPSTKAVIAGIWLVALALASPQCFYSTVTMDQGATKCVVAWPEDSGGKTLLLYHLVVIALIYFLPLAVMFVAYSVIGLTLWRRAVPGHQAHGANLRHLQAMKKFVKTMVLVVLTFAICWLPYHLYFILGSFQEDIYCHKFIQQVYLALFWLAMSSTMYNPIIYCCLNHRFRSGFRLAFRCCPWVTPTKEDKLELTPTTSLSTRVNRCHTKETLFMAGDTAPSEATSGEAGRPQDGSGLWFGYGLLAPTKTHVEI

[2] = DRUGMATRIX: Glutamate, NMDA, Phencyclidine radioligand binding (ligand: [3H] TCP); type: cell membranes, Rattus norvegicus, Wistar, Cerebral cortex, Membrane; settings: Not Active = under 50% inhibition at 10 µM
[3] = DRUGMATRIX: Interleukin IL-1 radioligand binding (ligand: [125I] interleukin 1beta); type: cell membranes, Membrane; settings: nih3t3; Not Active = under 50% inhibition at 10 µM
[4] = molecular target: Melanocortin receptor 3 (Homo sapiens, UniProt P41968); type: cell membranes, HEK293, Membrane; settings: hek293; further: in other assays of this panel Not Active means under 50% inhibition at 10 µM
Melanocortin receptor 3, sequence (P41968 whole entry): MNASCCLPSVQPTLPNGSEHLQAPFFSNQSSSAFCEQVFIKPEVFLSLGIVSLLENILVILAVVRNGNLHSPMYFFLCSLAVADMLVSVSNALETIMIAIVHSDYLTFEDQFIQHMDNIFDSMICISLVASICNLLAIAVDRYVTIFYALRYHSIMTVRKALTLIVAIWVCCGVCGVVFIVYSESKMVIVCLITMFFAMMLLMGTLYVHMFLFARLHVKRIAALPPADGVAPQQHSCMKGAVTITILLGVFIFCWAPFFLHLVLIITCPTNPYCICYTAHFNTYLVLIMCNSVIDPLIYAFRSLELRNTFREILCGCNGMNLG

[5] = molecular target: T2, Muscarinic acetylcholine receptor M4 (Homo sapiens, UniProt P08173); type: cell membranes, CHO-K1, Membrane; settings: cho-k1; further: in other assays of this panel Not Active means under 50% inhibition at 10 µM
T2 sequence (P08173 whole entry): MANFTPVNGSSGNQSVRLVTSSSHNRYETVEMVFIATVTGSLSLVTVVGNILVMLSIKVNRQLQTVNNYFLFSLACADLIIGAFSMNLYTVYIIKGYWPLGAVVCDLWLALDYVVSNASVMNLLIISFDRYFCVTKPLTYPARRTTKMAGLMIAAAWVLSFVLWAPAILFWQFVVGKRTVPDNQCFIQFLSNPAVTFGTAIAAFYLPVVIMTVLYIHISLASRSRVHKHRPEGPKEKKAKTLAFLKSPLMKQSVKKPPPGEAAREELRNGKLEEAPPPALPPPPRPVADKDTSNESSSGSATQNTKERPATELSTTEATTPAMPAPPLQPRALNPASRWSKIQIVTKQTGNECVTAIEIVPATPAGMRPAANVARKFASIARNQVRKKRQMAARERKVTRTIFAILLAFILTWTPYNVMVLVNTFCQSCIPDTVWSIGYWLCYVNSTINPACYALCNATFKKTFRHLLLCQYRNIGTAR

[6] = molecular target: T3, Neuropeptide Y receptor type 1 (Homo sapiens, UniProt P25929); type: cell membranes, Membrane; settings: sk-n-mc; further: in other assays of this panel Not Active means under 50% inhibition at 10 µM
T3 sequence (P25929 whole entry): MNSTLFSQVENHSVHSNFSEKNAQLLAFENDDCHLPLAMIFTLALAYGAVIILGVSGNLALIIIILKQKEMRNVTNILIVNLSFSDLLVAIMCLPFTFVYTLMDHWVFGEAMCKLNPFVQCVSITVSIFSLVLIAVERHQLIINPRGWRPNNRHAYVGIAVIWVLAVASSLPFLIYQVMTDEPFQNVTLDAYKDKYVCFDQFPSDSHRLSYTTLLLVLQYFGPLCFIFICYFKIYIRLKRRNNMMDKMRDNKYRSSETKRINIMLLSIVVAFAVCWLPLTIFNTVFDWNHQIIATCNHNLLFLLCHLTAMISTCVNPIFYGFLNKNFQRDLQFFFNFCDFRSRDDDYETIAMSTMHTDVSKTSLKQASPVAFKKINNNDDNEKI

[7] = molecular target: Tyrosine-protein kinase Lck (Homo sapiens, UniProt P06239); test: DRUGMATRIX: Protein Tyrosine Kinase, LCK enzyme inhibition (substrate: Poly(Glu:Tyr)); type: cell-based, Insect cells; settings: insect cells; Not Active = under 50% inhibition at 10 µM
Tyrosine-protein kinase Lck, sequence (P06239 whole entry): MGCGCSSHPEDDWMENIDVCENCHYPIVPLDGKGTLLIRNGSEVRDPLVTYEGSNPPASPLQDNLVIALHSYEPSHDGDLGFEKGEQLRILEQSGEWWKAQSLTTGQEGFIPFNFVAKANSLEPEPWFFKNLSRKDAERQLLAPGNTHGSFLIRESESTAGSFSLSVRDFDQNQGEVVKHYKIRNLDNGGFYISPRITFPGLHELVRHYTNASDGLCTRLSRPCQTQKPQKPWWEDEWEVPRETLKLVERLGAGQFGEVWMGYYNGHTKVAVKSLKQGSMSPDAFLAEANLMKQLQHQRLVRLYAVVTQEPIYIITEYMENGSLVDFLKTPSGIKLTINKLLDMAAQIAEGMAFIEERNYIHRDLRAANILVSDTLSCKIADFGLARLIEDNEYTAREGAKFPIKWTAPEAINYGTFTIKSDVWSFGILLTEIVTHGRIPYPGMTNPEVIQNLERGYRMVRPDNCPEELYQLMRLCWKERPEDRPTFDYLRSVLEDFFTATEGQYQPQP

[8] = molecular target: T4, Cytochrome P450 1A2 (Homo sapiens, UniProt P05177); settings: bti-tn-5b1-4; further: in other assays of this panel Not Active means under 50% inhibition at 10 µM
T4 sequence (P05177 whole entry): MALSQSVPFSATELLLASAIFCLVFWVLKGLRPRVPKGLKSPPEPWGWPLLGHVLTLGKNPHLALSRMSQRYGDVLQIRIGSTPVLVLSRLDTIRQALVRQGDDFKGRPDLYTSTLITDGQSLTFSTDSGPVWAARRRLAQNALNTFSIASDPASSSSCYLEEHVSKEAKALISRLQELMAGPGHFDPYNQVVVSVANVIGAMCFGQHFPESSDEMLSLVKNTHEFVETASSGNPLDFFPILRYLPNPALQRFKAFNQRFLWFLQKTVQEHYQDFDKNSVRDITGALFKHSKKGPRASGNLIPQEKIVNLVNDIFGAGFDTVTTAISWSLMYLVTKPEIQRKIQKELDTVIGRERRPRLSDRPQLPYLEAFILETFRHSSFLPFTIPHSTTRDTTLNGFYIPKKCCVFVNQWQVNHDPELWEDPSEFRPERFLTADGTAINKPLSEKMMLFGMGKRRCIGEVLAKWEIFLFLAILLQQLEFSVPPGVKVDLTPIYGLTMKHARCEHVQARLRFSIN

Nc1ccc(Cc2ccc(N)cc2)cc1
Not Active: IC50 [1] | IC50 [2] | Ki [2] | IC50 [3] | Ki [3] | IC50 [4] | IC50 [5] | IC50 [6] | IC50 [7] | IC50 [8] | Ki [8]

O=C(O)COC(=O)Cc1ccccc1Nc1c(Cl)cccc1Cl [ACECLOFENAC]
Not Active: IC50 [1] | IC50 [2] | Ki [2] | IC50 [3] | Ki [3] | IC50 [4] | IC50 [5] | IC50 [6] | IC50 [7] | IC50 [8] | Ki [8]

O=C(O)CCc1nc(-c2ccccc2)c(-c2ccccc2)o1 [OXAPROZIN]
Not Active: IC50 [1] | IC50 [2] | Ki [2] | IC50 [3] | Ki [3] | IC50 [4] | IC50 [5] | IC50 [6] | IC50 [7] | IC50 [8] | Ki [8]

C=CCN1CC[C@]23c4c5ccc(O)c4O[C@H]2/C(=N/N=C2\CC[C@@]4(O)[C@H]6Cc7ccc(O)c8c7[C@@]4(CCN6CC=C)[C@H]2O8)CC[C@@]3(O)[C@H]1C5 [NALOXONAZINE]
Not Active: IC50 [1] | IC50 [2] | Ki [2] | IC50 [3] | Ki [3] | IC50 [4] | IC50 [5] | IC50 [6] | IC50 [7] | IC50 [8] | Ki [8]

O=C(O)CO [GLYCOLIC ACID]
Not Active: IC50 [1] | IC50 [2] | Ki [2] | IC50 [3] | Ki [3] | IC50 [4] | IC50 [5] | IC50 [6] | IC50 [7] | IC50 [8] | Ki [8]

COC(=O)Nc1nc2ccc(Sc3ccccc3)cc2[nH]1 [FENBENDAZOLE]
Not Active: IC50 [1] | IC50 [2] | Ki [2] | IC50 [3] | Ki [3] | IC50 [4] | IC50 [5] | IC50 [6] | IC50 [7] | IC50 [8] | Ki [8]

CC12CCC(CC1)C(C)(C)O2 [EUCALYPTOL]
Not Active: IC50 [1] | IC50 [2] | Ki [2] | IC50 [3] | Ki [3] | IC50 [4] | IC50 [5] | IC50 [6] | IC50 [7] | IC50 [8] | Ki [8]

O=C(Nc1ccc(Cl)c(Cl)c1)c1cc(Cl)cc(Cl)c1O [3,3',4',5-TETRACHLOROSALICYLANILIDE]
Not Active: IC50 [1] | IC50 [2] | Ki [2] | IC50 [3] | Ki [3] | IC50 [4] | IC50 [5] | IC50 [6] | IC50 [7] | IC50 [8] | Ki [8]

Cc1ccnc2c1NC(=O)c1cccnc1N2C1CC1 [NEVIRAPINE]
Not Active: IC50 [1] | IC50 [2] | Ki [2] | IC50 [3] | Ki [3] | IC50 [4] | IC50 [5] | IC50 [6] | IC50 [7] | IC50 [8] | Ki [8]

O=C1CN(/N=C/c2ccc([N+](=O)[O-])o2)C(=O)N1 [NITROFURANTOIN]
Not Active: IC50 [1] | IC50 [2] | Ki [2] | IC50 [3] | Ki [3] | IC50 [4] | IC50 [5] | IC50 [6] | IC50 [7] | IC50 [8] | Ki [8]

COC(=O)C[C@](O)(CCC(C)(C)O)C(=O)O[C@@H]1C(OC)=C[C@]23CCCN2CCc2cc4c(cc2[C@H]13)OCO4 [HARRINGTONINE]
Not Active: IC50 [1] | IC50 [2] | Ki [2] | IC50 [3] | Ki [3] | IC50 [4] | IC50 [5] | IC50 [6] | IC50 [7] | IC50 [8] | Ki [8]

Nc1nc(F)nc2c1ncn2[C@@H]1O[C@H](CO)[C@@H](O)[C@@H]1O [FLUDARABINE]
Not Active: IC50 [1] | IC50 [2] | Ki [2] | IC50 [3] | Ki [3] | IC50 [4] | IC50 [5] | IC50 [6] | IC50 [7] | IC50 [8] | Ki [8]

C=C(Cl)Cl [1,1-DICHLOROETHENE]
Not Active: IC50 [1] | IC50 [2] | Ki [2] | IC50 [3] | Ki [3] | IC50 [4] | IC50 [5] | IC50 [6] | IC50 [7] | IC50 [8] | Ki [8]

CC[C@H]1OC(=O)[C@H](C)[C@@H](O[C@H]2C[C@@](C)(OC)[C@@H](O)[C@H](C)O2)[C@H](C)[C@@H](O[C@@H]2O[C@H](C)C[C@H](N(C)C)[C@H]2O)[C@](C)(O)C[C@@H](C)C(=O)[C@H](C)[C@@H](O)[C@]1(C)O [ERYTHROMYCIN]
Not Active: IC50 [1] | IC50 [2] | Ki [2] | IC50 [3] | Ki [3] | IC50 [4] | IC50 [5] | IC50 [6] | IC50 [7] | IC50 [8] | Ki [8]

CCC1(c2ccccc2)C(=O)NC(=O)NC1=O [PHENOBARBITAL]
Not Active: IC50 [1] | IC50 [2] | Ki [2] | IC50 [3] | Ki [3] | IC50 [4] | IC50 [5] | IC50 [6] | IC50 [7] | IC50 [8] | Ki [8]

CCN1C[C@]2(COC)[C@H](O)C[C@H](OC)[C@@]34[C@@H]5C[C@@]6(O)[C@H](OC(=O)c7ccccc7)[C@@H]5[C@@](OC(C)=O)([C@@H]([C@H](OC)[C@H]23)[C@@H]14)[C@@H](O)[C@@H]6OC [ACONITINE]
Not Active: IC50 [1] | IC50 [2] | Ki [2] | IC50 [3] | Ki [3] | IC50 [4] | IC50 [5] | IC50 [6] | IC50 [7] | IC50 [8] | Ki [8]

CCN1CCN(C(=O)N[C@@H](C(=O)N[C@@H]2C(=O)N3[C@@H]2SC(C)(C)[C@@H]3C(=O)O)c2ccccc2)C(=O)C1=O [PIPERACILLIN]
Not Active: IC50 [1] | IC50 [2] | Ki [2] | IC50 [3] | Ki [3] | IC50 [4] | IC50 [5] | IC50 [6] | IC50 [7] | IC50 [8] | Ki [8]

O=C(O)c1ccccc1 [BENZOIC ACID]
Not Active: IC50 [1] | IC50 [2] | Ki [2] | IC50 [3] | Ki [3] | IC50 [4] | IC50 [5] | IC50 [6] | IC50 [7] | IC50 [8] | Ki [8]
